Reference: patent US10544100B2, “Autophagy inhibitors” (priority 2011, dated 2020)

What was measured:
lysosome in U2OS cells = assay: Inhibitory lysosomal mechanism of action (LysoTracker Red and LAMP1 staining); type: cell-based; settings: for LAMP1 staining / LysoTracker Red staining: at 304 for 3 hours; for LysoTracker Red staining: LysoTracker Red for the final hour; for intensity of LysoTracker Red staining (image analysis, line scan): indicating an increase in pH
Procedure: To determine deacidification of the lysosome, cells were incubated with LysoTracker Red, a dye that localizes to the lysosome based on the low acidity of the compartment. If the lysosome is no longer acidic, there is a loss in the amount of LysoTracker Red staining. Lysosomal inhibition was further determined by immunofluorescence of lysosome-associated membrane protein-1 (LAMP1). If the lysosome is inhibited, lysosomal turnover should decrease and an increase in the amount of LAMP1 staining would be apparent. U2OS cells were treated with Example 7 or Example 26 at […] for 3 hours, supplementing LysoTracker Red for the final hour.
Using image analysis software, the mean intensities of both the LAMP1 and LysoTracker Red staining were measured and represent altered intensity level between treatments on intensity plots. Individual points were measured using a line scan on the image analysis software, which measures the intensity across the path of a line at any given point. Not only does the presence of LAMP1 positive membranes increases, but the intensity in LAMP1 staining also increases with Example 7 and Example 26 treatment. The inverse relationship in intensity holds true for LysoTracker Red staining.

[1] = tested on: Tumor cell lines (H292, HCT116, A375, HCC1569, A498, N87, UACC1093, and UACC647); assay: Single agent tumor cell viability (ATP luminescence), 72 hours; type: cell-based; settings: in the cell lines tested (FIGS. 1A, 1B, and C)
Procedure: (§1) Tumor cell lines (H292, HCT116, A375, HCC1569, A498, N87, UACC1093, and UACC647) were cultured in RPMI 1640 supplemented with 5% fetal bovine serum and housed in a 5% CO2 Incubator at 37° C.
(§2) For single agent IC50 determination, cells were plated on a 96 well microplate and allowed 24 hours to adhere. Drugs were administered to the drug plate by the following: compound stock solutions (10 mM) were added to a drug plate where a 1:10 dilution was performed. Following the dilutions, 2 μl of test compound was transferred to the corresponding wells in the cell-containing 96-well plate with 198 μl of growth media. The compounds were tested over a range of 0.1 pM-100 μM for 72 hours. Following 72 hours of continuous exposure cell viability was determined by measuring the ATP activity using a commercially available cell viability assay kit. Luminescence intensity was used to relative drug activity compared to control wells and used to graphically determine the IC50.

[2] = tested on: A375 Human melanoma tumor cells; assay: Human tumor xenograft study; type: in vivo; settings: A375 xenograft in female mice, oral, daily for 21 days; after 25 days
Procedure: Female mice were inoculated subcutaneously in the right flank with 0.1 ml of a 50% RPMI/50% Matrigel™ (BD Biosciences, Bedford, Mass.) mixture containing a suspension of A375 Human melanoma tumor cells (approximately 5×10^6 cells/mouse).
When tumor reached approximately 130 mg, mice were randomized into treatment groups. Body weights were recorded when the mice were randomized and were taken twice per week (on Study Days 3 and 7 for each cycle) thereafter in conjunction with tumor measurements. Treatment began on the day of randomization. Example 10 was delivered orally in a vehicle consisting of 5% DMA, 10% propylene glycol, 20% PEG 400, and 65% sterile water. Example 10 was administered daily for 21 days.

[3] = tested on: PLX-4032 resistant melanoma cell lines UACC1093 and UACC647; assay: Combination interaction tumor cell viability (ATP luminescence), 72 hours; type: cell-based
Procedure: as §1
as §2, with “combination interaction experiments,” for “single agent IC50 determination,”, “(20 mM) or combination agent stock solutions (20” for “(10”, “each VT-062 and standard agent” for “test compound”, “196” for “198”, “compound and combination agent was concurrently” for “compounds were”, “IC50 of combination.” for “IC50.”

SMILES	intensity in LAMP1 staining (image analysis, line scan) (lysosome in U2OS cells)	LAMP1 staining (lysosome in U2OS cells)	LysoTracker Red staining (lysosome in U2OS cells)	intensity of LysoTracker Red staining (image analysis, line scan) (lysosome in U2OS cells)	tumor cell growth inhibition [1]	tumor growth inhibition (tumor weight) [2]	increase in tumor growth inhibition in combination than Example 10 alone ([3]; in combination with PLX-4032, UACC1093 and UACC647 (FIGS. 4A and 4C))	increase in tumor growth inhibition in combination than Example 10 alone ([3]; in combination with Temozelomide, UACC1093 and UACC647 (FIGS. 4B and 4D))
CCN1CCC(Nc2c3c(nc4cc(Cl)ccc24)CCCC3)CC1 [Example 26, 6-Chloro-N-(1-ethylpiperidin-4-yl)-1,2,3,4-tetrahydroacridin-9-amine]	increases	substantial increases in LAMP1 staining	essentially ablated LysoTracker Red staining	less intense LysoTracker Red staining	–	–	–	–
COc1ccc2nc3cc(Cl)ccc3c(NCCCCN3CCN(C)CC3)c2c1 [Example 7, 6-Chloro-2-methoxy-N-(4-(4-methylpiperazin-1-yl)butyl)acridin-9-amine]	increases	substantial increases in LAMP1 staining	essentially ablated LysoTracker Red staining	less intense LysoTracker Red staining	–	–	–	–
COc1ccc2nc3cc(Cl)ccc3c(NCCCCN(C)CC3CC3)c2c1 [Example 10, N^1-(6-Chloro-2-methoxyacridin-9-yl)-N^4-(cyclopropylmethyl)-N^4-methylbutane-1,4-diamine]	–	–	–	–	more than 75%	greater than 50%	2.6-3.25%	7-30%
